Each structure is given as a SMILES string.

Experimental findings from ChEMBL document CHEMBL4330071 (Eur J Med Chem, 2019) are described below.

For data set [1], the target named is T1, Receptor-type tyrosine-protein kinase FLT3 (Homo sapiens, UniProt P36888).
T1 sequence (P36888 whole entry): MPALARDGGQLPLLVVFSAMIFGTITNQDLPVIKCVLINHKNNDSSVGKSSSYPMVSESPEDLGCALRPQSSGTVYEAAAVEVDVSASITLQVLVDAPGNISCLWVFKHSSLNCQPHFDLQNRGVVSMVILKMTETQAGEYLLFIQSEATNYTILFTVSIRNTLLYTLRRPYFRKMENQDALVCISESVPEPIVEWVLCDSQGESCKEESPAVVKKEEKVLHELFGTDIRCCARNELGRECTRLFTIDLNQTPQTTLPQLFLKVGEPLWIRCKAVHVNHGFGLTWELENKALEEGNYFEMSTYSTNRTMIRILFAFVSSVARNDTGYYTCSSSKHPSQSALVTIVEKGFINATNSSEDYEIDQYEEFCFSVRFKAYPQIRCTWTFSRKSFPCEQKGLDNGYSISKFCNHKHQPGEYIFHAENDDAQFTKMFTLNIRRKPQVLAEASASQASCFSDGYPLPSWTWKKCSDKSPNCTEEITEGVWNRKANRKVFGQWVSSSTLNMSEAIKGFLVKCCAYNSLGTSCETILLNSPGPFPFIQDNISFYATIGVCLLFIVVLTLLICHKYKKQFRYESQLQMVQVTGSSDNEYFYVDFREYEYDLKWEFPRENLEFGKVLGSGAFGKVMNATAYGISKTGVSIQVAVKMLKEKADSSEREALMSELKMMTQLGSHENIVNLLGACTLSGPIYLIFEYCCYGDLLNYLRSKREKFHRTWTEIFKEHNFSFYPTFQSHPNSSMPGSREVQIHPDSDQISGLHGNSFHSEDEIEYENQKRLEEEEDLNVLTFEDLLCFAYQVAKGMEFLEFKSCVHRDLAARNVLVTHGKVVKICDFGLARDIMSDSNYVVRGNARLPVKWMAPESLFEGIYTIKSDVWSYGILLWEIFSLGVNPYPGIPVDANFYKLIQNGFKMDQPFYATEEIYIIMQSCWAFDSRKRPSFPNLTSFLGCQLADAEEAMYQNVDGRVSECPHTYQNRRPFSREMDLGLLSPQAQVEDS
The experiment in a line: Inhibition of human FLT3 using EAIYAAPFAKKK as substrate preincubated for 20 mins followed by [gamma-33P]-ATP addition and measured after 120 mins by Hotspot assay.

Data set [2] in a line: Half life in human liver microsomes at 1 uM after 5 to 60 mins in presence of NADPH by LC-MS/MS analysis. It is filed as ADME, Microsome.
Data set [3] is described as follows: Intrinsic clearance in human liver microsomes assessed per mg protein at 1 uM after 5 to 60 mins in presence of NADPH by LC-MS/MS analysis. It is filed as ADME, Microsome. Particulars: read-out: CLH. For orientation: Liver microsomes are vesicles of endoplasmic reticulum, rich in cytochrome P450 enzymes.
The nature of data set [4]: Intrinsic clearance in rat liver microsomes assessed per mg protein at 1 uM after 5 to 60 mins in presence of NADPH by LC-MS/MS analysis. Particulars: read-out: CLH. Format: ADME, Microsome.
Data set [5] in a line: Half life in rat liver microsomes at 1 uM after 5 to 60 mins in presence of NADPH by LC-MS/MS analysis. Format: ADME, Microsome.
For data set [6], the system named is MV4-11. The experiment in a line: Induction of apoptosis in human MV4-11 cells assessed as viable cells at 1 uM after 24 hrs by Annexin V-FITC/propidium iodide staining based flow cytometric analysis (reference value: 95.19%). Particulars: MV4-11, 24 h, read-out: Activity. It is filed as functional.
Data set [7] concerns MV4-11. The experiment in a line: Induction of apoptosis in human MV4-11 cells assessed as early apoptotic cells at 1 uM after 24 hrs by Annexin V-FITC/propidium iodide staining based flow cytometric analysis (reference value: 3.39%). Format: functional.
The subject of data set [8] is MV4-11. The experiment in a line: Induction of apoptosis in human MV4-11 cells assessed as late apoptotic cells at 1 uM after 24 hrs by Annexin V-FITC/propidium iodide staining based flow cytometric analysis (reference value: 1.42%). Format: functional. Background: Flow cytometry measures light scatter and fluorescence of single cells or particles in a stream.
Data set [9] relates to MV4-11. The experiment in a line: Induction of apoptosis in human MV4-11 cells assessed as necrotic cells at 1 uM after 24 hrs by Annexin V-FITC/propidium iodide staining based flow cytometric analysis (reference value: 0%). It is filed as functional.
In data set [10] the test system is MV4-11. The experiment in a line: Cytotoxicity against human MV4-11 cells at 1 uM after 72 hrs by MTT assay. It is filed as cell-based. Particulars: mv4-11, 72 h. (In general: Tetrazolium assays rely on reduction of a dye to a coloured formazan, in cell work by metabolically active cells.)

The term IC50 denotes the point on the concentration scale where inhibition reaches its midpoint. `COc1ccc(Oc2ccc3c(NC(=O)c4ccc(NC5CCN(C)CC5)cc4)n[nH]c3c2)cc1` came in with a 50% inhibitory concentration (IC50) in data set [1] of 222 nM.
Same read-out and setting: next, `CN1CCC(Nc2ccc(C(=O)Nc3n[nH]c4cc(Oc5ccccc5)ccc34)cc2)CC1`: 136 nM.
A word on the half-life: it is how long it takes for the measured level to halve. Consider `Cc1ncc2n1-c1ccc(Cl)cc1C(c1ccccc1F)=NC2` [MIDAZOLAM], for which the half-life at 1 µM in data set [2] worked out at 2.2 min; in data set [5], 11.2 min. Besides, the microsomal CLint at 1 µM was 625 µL/min/mg in data set [3] and 124 µL/min/mg in [4].
As for `CNC(=O)c1cc(Oc2ccc(NC(=O)Nc3ccc(Cl)c(C(F)(F)F)c3)cc2)ccn1` [SORAFENIB], the viability at 1 µM in [6] was 36%. The Activity in data set [7] is 32.25%; in [8], 27.58%; in data set [9], 4.2%; in [10], “Non-Toxic”.
For the molecule `CN1CCN(c2ccc(Nc3[nH]nc4c3-c3ccccc3CC4)cc2)CC1`, in data set [1], the IC50 is 610 nM.
In the case of `CN1CCN(c2ccc(Nc3[nH]nc4c3-c3ccccc3CO4)cc2)CC1`, the IC50 in data set [1] was 842 nM.
